Experimental data reported in patent US5563125A, “5'-deoxy-5'-(substituted)alkylthioribose compounds and their pharmaceutical compositions” (priority 1992, dated 1996).

B1: Mouse Liver MTA Phosphorylase (Mus musculus) (protein)
chain: MASGSACTAVKIGIIGGTGLDDPEILEGRTEKYVDTPFGKPSDALILGKIKNVDCVLLARHGRQHTIMPSKVNYQANIWALKEEGCTHVIVTTACGSLREEIQPGDMVIIDQFIDRTSLRPQTFYDGSHCSARGVCHIPMAEPFCPKTREVLIETAKKLGLRCHSKGTIVTIEGPRFSSRAESLIFRTWGADVVNMTTVPEVVLAKEAGICYASIAMATDYDCWKEHEEAVSVDGVLKTMKENANKAKSLLLTTIPQIGSMEWSETLRNLKNMAQFSVLPPRH
notes: of Mouse Liver MTA Phosphorylase; from tissue; host or cells: mouse liver

How the values were obtained:
[1] = tested on: Plasmodium falciparum (Strain FCR-3: ATCC #30932); experiment: Antimalarial activity in vitro, 3H-hypoxanthine incorporation; type: cell-based; settings: strain FCR-3, in vitro
Description: P. falciparum was cultured by the method of Trager and Jensen (1976). The FCR-3 strain was used for all experiments. For enzyme measurements, parasites were isolated from infected red cells by saponin lysis and stored at -70° C.
To determine drug effects, ^3 H-hypoxanthine incorporation was measured in the following manner. Infected red cells and varying concentrations of drugs were aliquoted in triplicate wells of a 96-well microtiter plate (Corning). Each well contained a total volume of 200 μl with a final hematocrit of 5 percent and parasitemia of 0.5-1%. The microtiter plates were incubated at 37° C. in candle jars. ^3 H-hypoxanthine (0.5 μCi) was added to each well after 24 hours. After an additional 24 hours of incubation, the parasites were harvested using a PHD cell harvester (Cambridge Technologies). Filters were immersed in Aquasol (New England Nuclear) and counted using a LKB rack beta scintillation counter.
*Concentration which inhibits growth by 50% when compared to untreated,
control cultures, and under defined assay conditions.

[2] = tested on: T. b. brucei procyclic trypanosomes (Lab 110 EATRO strain); experiment: In vitro antitrypanosomal activity, procyclic trypanosomes in T2 medium; type: cell-based, Trypanosoma brucei brucei; settings: Trypanosoma brucei, 3-5 days
Description: The antitrypanosomal effects of HETA and other nucleosides were examined in the Lab 110 EATRO strain of T. b. brucei in culture.
Cells were cultured as described in Bacchi et al. Exp. Parasitol. 68, 392, 1989. Cells were then grown in the presence of the compounds for 3-5 days. Drugs were filtered, sterilized and added aseptically. Control cells achieved a maximum density of 1.5-3.5×10^7 /ml. Hemocytometer counts were made daily and the results were expressed as a percent of control growth. IC50 plots were obtained by graphing log (drug) vs. percent growth inhibition.
Trypanocidal Activity of MTA and MTR Analogs
against T. b. brucei procyclic trypanosomes in T2 medium.

P. falciparum = experiment: In vitro antimalarial activity of HETA; type: cell-based, Plasmodium falciparum; settings: P. falciparum in vitro screen
[3] = substrate: CSC[C@H]1O[C@@H](n2cnc3c(N)ncnc32)[C@H](O)[C@@H]1O; experiment: Mouse liver MTA phosphorylase substrate/inhibitor assay; type: biochemical; settings: other: mouse liver MTA phosphorylase
Description: ^a MTA phosphorylase activity was assayed as described in Sufrin et

Molecule | IC50 [1] [µM] | IC50 [2] [µM] | growth of the microorganism inhibited in an in vitro screen (P. falciparum) | Km [3] [µM]
CCSC[C@H]1OC(O)[C@H](O)[C@@H]1O (stereo partly shown) [ETR, 5-deoxy-5-(ethylthio)ribose, reference compound] | > 1000 | > 100 |  | 
OCCSC[C@H]1OC(O)[C@H](O)[C@@H]1O (stereo partly shown) [HETR, 5-deoxy-5-(hydroxyethylthio)ribose] | > 1000 | > 100 | not | 
OC1O[C@H](CSCCF)[C@@H](O)[C@H]1O (stereo partly shown) [MFETR, 5-deoxy-5-(monofluoroethylthio)ribose] | 700 |  |  | 
B1 |  |  |  | 1.3
